Data: patent US20090325202A1, “Methods for Developing and Assessing Therapeutic Agents” (priority 2006, published 2009)

Key:
ERK1/2 [1] = test: Phospho-/total ERK1/2 ELISA in EGF-stimulated T-47D cell smears; type: cell-based, human; conditions: T-47D cells, AG1478 0.5 uM, PD98059 20 uM
Method: T47D cells were maintained in Dulbecco's modified Eagle's medium (Life Technologies, Inc.) supplemented with 10% fetal calf serum and antibiotics (Life Technologies, Inc.). Prior to EGF (Sigma) stimulation, cells were starved for 24 h in serum-free medium.
(§1) Total cell lysates were obtained from either cells cultured in vitro or from tumor FNAB samples. Protein extracts were resolved by 4-15% SDS-PAGE and probed with Rabbit anti-EGFR, anti-phospbo-EGFR, anti-ERK1 and anti-phospho-ERK antibodies obtained from New England Biolabs (Beverly, Mass.). Immunoreactive proteins were visualized by enhanced chemiluminescence (Amersham International, United Kingdom). Total and phospho-ERK1/2 proteins were quantified by sandwich [LISA kits (BioSource International, Camarillo, Calif., USA) as described in the manufacturer's protocols. The reaction was read at 450 nm in an ELISA plate reader.
Western blot analysis of protein samples is a conventional method for phosphoprotein analysis. However, Western blot analysis is limited in throughput and quantitative precision, and also requires large sample amounts. […] Therefore, it was tested if quantitative ELISA assays can be applied to cytologic samples to increase the assay sensitivity to measure the expression levels and activation status of specific signaling pathways. […]

ERK1/2 [2] = test: Ex vivo treatment of human breast cancer cells obtained by FNAB, ERK1/2 phosphorylation; type: cell-based; conditions: 3 hours, AG1478 0.5 uM, PD98059 20 uM
Method: (§2) To obtain cancer cells cancer tumor tissue was sampled four times with a sterile 25G short needle and tumor samples were immediately transferred into 10 ml sterile prewarmed complete RPMI-1640 culture medium containing 10% fetal calf serum, penicillin (200 ug/ml) and streptomycin (200 ug/nil). After centrifugation and cells were resuspended and distributed in 6-well microculture plates and treated in duplicates with vehicle alone (DMSO control), an EGFR inhibitor AG1478 (0.5 uM) (Calbiochem, 658548), a MEK/ERK inhibitor PD98059 (20 uM) (Biosource International, PHZ 1164) or with a PI3K/AKT inhibitor LY294002 (10 uM) (Biosource International, PHZI 144) in a humidified 5% CO2 incubator at 37° C. for 3 hours.
(§3) Following treatment nonadherent and adherent cells (collected by scraping) were pooled together in a 1.5 ml microcentrifuge tube and centrifuged at 500×g for 5 min at 4° C. After washing with PBS, cells were lysed in 100 μl of ice-cold lysis buffer and therapy-induced changes n the expression and phosphorylation levels of AKT and ERK1/2 were detected by Western blot.

AKT = test: Ex vivo treatment of human breast cancer cells obtained by FNAB, AKT phosphorylation; type: cell-based; conditions: 3 hours, AG1478 0.5 uM, LY294002 10 uM
Method: as §2, §3

ERK1/2 [3] = test: Panc 265 xenograft FNAB cells treated ex vivo, ERK1/2 phosphorylation; type: cell-based, human; conditions: Panc 265 FNAB cells; ZD1839 5 uM; 6 hours
Method: (§4) To obtain cancer cells, each animal tumor was sampled as described above. After collection of tumor FNAB samples, xenograft animals were subsequently treated with ZD1839 or CCI-779 for 28 days and tumor volumes were determined as described above. At day 7 of therapy, AD/DQ slides were prepared from tumor FNAB samples to retrospectively correlate the results of in vivo and ex vivo chemosentitivty tests from the same xenograft animal.
To determine viability of tumor cells obtained by FNAB, trypan blue dye exclusion assay was performed. The viability of tumor cells obtained by tumor FNAB from control animals was over 95%. Approximately 75,000 tumor cells were seeded into each well of a 6-well polypropylene microplate. Cells were treated in duplicates with vehicle (control) or with ZD1839 (5 uM) or CCI-779 (1 uM) in a humidified 5% CO2 incubator at 37° C. for different periods to determine the optimal treatment time to analyze drug effects.
(§5) After the treatment cells were collected, protein extracts were prepared and Western blot analysis was performed as described above. The ex vivo effect of ZD 1839 and CCI-779 on phosphorylation of ERK1/2 or S6 ribosomal proteins, respectively, was correlated with the in vivo data gathered from the FNAB smears prepared at day 7 of treatment.

ERK1/2 [4] = test: Panc 265 xenograft in vivo FNAB smears, ERK1/2 activity; parameters: species or system human; conditions: ZD1839 150 mg/Kg daily i.p., FNAB day 7
Method: Animals were either untreated or treated with ZD1839: 150 mg/Kg daily or CCI-779: 20 mg/kg days 1-5 by intraperitoneal injection
as §4, §5

HuCCT-1 tumors = test: HuCCT-1 xenograft tumor growth; type: in vivo, athymic (nu+/nu+) mice; conditions: single agents: gefitinib 150 mg/Kg i.p. days 1-5 and 8-12, CI-1040 150 mg/Kg twice a day oral days 1-14
Method: (§6) Four to 6-week-old female athymic (nu+/nu+) mice were purchased from Harlan (Harlan Laboratories, Washington, D.C.). The research protocol was approved by the Johns Hopkins University Animal Care Committee and animals were maintained in accordance with the guidelines of the American Association of Laboratory Animal Care. […] Mice were monitored daily for signs of toxicity and were weighed three times per week. Tumor size was evaluated three times per week by caliper measurements using the following formula: tumor volume=[length×width^2]/2. Tumor growth inhibition was calculated by tumor volume of treated mice divided by tumor volume of control mice. Experiments were terminated on day 14.
To explore the feasibility of implementing this method in in vivo studies, mouse xenografts were next employed to test whether FNAB material obtained from tumor tissue can be utilized to monitor and predict therapy response in vivo. For this purpose HuCCT-1 cholangiocarcinoma cells were used to create a xenograft mouse model of human cholangiocarcinoma. […] Tumor volumes were measured and compared with tumors from animals that received drug vehicle alone.

ERK1/2 [5] = test: HuCCT-1 xenograft tumor FNAB Western blot, ERK1/2 activity; type: in vivo, human; conditions: in vivo
Method: as §6
Fine needle aspirates were obtained with a 25G needle and 10 ml syringe, passing the needle through the tumor 10 times with application of 1-2 ml suction The aspirated material was expressed onto clear glass slides and smeared. All smears were allowed to air dry and then stained with Diff-Quik stain (Baxter Healthcare, Miami, Fla.). Five to ten AD/DQ-stained cytological smears were prepared from each tumor sample. The cellular composition of each aspirate was assessed by cytopathologists.
as §1, with “Protein extracts were resolved by 4-15% SDS-PAGE and probed with Rabbit anti-EGFR, anti-phospbo-EGFR, anti-ERK1 and anti-phospho-ERK antibodies obtained from New England Biolabs (Beverly, Mass.).” left out
Next, whether FNAB samples obtained from tumor tissue at the early stage of therapy can be used to predict tumor response was examined. […] Expression and phosphorylation levels of ERK 1/2 were analyzed on Western blot by using extracts prepared from AD/DQ-stained FNAB samples.

ERK1/2 [6] = test: HuCCT-1 xenograft tumor FNAB phospho-/total ERK1/2 ELISA; type: in vivo, human
Method: as §6
as §1, with “Protein extracts were resolved by 4-15% SDS-PAGE and probed with Rabbit anti-EGFR, anti-phospbo-EGFR, anti-ERK1 and anti-phospho-ERK antibodies obtained from New England Biolabs (Beverly, Mass.).” left out
Western blot analysis of protein samples is a conventional method for phosphoprotein analysis, but is limited in throughput, quantitative precision and requires large sample amounts. ELISA assays offer alternatives to Western blot with higher throughput and increased sensitivity. […] For this purpose the tumor FNAB samples, which have been analyzed on Western blot above (FIG. 16A), were used to assess the expression and phosphorylation of ERK1/2 proteins by the total and phospho-specific ERK1/2 ELISA assays, respectively.
The amounts of phosphorylated ERK1/2 were normalized for the total contents of these proteins in each sample group and therapy-mediated changes in their phosphorylation status were quantified.

SMILES	inhibition of EGF-induced ERK1/2 phosphorylation (phospho-ELISA normalized for total ERK1/2) (ERK1/2 [1])	phosphorylation of ERK1/2 (ERK1/2 [2])	phosphorylation of AKT (AKT)	ERK1/2 phosphorylation ex vivo (ERK1/2 [3])	ERK1/2 activity in vivo (ERK1/2 [4])	decrease in tumor volume (HuCCT-1 tumors)	ERK1/2 activity, serial FNAB sampling (ERK1/2 [5])	phosphorylation levels of ERK1/2 by phospho-ERK1/2 ELISA (raw data) (ERK1/2 [6]; HuCCT-1 tumor FNAB samples of treated animals)	increase of ERK1/2 phosphorylation (normalized for total ERK1/2) (ERK1/2 [6]; HuCCT-1 tumor FNAB, gefitinib alone)
COc1cc2ncnc(Nc3cccc(Cl)c3)c2cc1OC [AG1478]	80%	reduced the phosphorylation of both ERK1/2 and AKT proteins	reduced the phosphorylation of both ERK1/2 and AKT proteins	–	–	–	–	–	–
COc1cc2ncnc(Nc3ccc(F)c(Cl)c3)c2cc1OCCCN1CCOCC1 [gefitinib, Gefitinib]	–	–	–	failed to block ERK1/2 phosphorylation	failed to block ERK1/2 activity	4%	neither of these agents alone caused inhibition	neither gefitinib nor CI-1040 treatment alone caused any significant change	17%
